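48-hour exposure; five concentrations; linearly interpolated endpoints. The concentration for 50% growth inhibition is given as GI50.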 The source made the active and inactive calls. Rule as the data show it: active = GI50 up to about 1.1 µM and inactive = higher.
Experiments:
Assay in all cases: inhibition of tumour cell growth, NCI panel, 48 h
SN12C = test system: SN12C
UACC-62 = test system: UACC-62
HCC 2998 = test system: HCC 2998
MCF7 = test system: MCF7
OVCAR-3 = test system: OVCAR-3
NCI-H460 = test system: NCI-H460
786-0 = test system: 786-0
EKVX = test system: EKVX
U-251 = test system: U-251
DU-145 = test system: DU-145
HL-60 = test system: HL-60
NCI-H23 = test system: NCI-H23
SF-539 = test system: SF-539
CAKI-1 = test system: CAKI-1
K562 = test system: K562
OVCAR-5 = test system: OVCAR-5
M14 = test system: M14
DLD-1 = test system: DLD-1
SF-268 = test system: SF-268
ACHN = test system: ACHN

Compound | GI50 (SN12C) | GI50 (UACC-62) | GI50 (HCC 2998) | GI50 (MCF7) | GI50 (OVCAR-3) | GI50 (NCI-H460) | GI50 (786-0) | GI50 (EKVX) | GI50 (U-251) | GI50 (DU-145) | GI50 (HL-60) | GI50 (NCI-H23) | GI50 (SF-539) | GI50 (CAKI-1) | GI50 (K562) | GI50 (OVCAR-5) | GI50 (M14) | GI50 (DLD-1) | GI50 (SF-268) | GI50 (ACHN)
CCNCCCCNCCCCNCCCCNCCCCNCC | > 95.1 µM (inactive) | 14.4 µM (inactive) | > 100 µM (inactive) | > 100 µM (inactive) | > 100 µM (inactive) | 32 µM (inactive) | 34.8 µM (inactive) | 53.5 µM (inactive) | > 100 µM (inactive) | > 100 µM (inactive) | 9.04 µM (inactive) | 9.08 µM (inactive) | 70.1 µM (inactive) | 10.4 µM (inactive) | 57 µM (inactive) | 52.5 µM (inactive) | > 100 µM (inactive) | > 100 µM (inactive) | 48.8 µM (inactive) | > 89.9 µM (inactive)
CCC/C(=N\NC(=S)N1CC2CCC(CC2)C1)c1ccccn1 | 0.395 µM (active) | 0.0479 µM (active) | 0.344 µM (active) | 0.042 µM (active) | 0.254 µM (active) | 0.22 µM (active) | 0.438 µM (active) | 0.0434 µM (active) | 0.181 µM (active) | 1.49 µM (inactive) | 0.00957 µM (active) | 0.422 µM (active) | 0.594 µM (active) | 1.21 µM (inactive) | 0.00581 µM (active) | 0.649 µM (active) | 0.0929 µM (active) | 0.0118 µM (active) | 0.641 µM (active) | 0.131 µM (active)
CCN(CC)CC(O)CNc1ccc(NCC(O)CCl)c2c1C(=O)c1ccccc1C2=O (stereo not given) | 4.95 µM (inactive) | 14.4 µM (inactive) | 7.83 µM (inactive) | 1.56 µM (inactive) | 6.78 µM (inactive) | 2.78 µM (inactive) | 2.98 µM (inactive) | 14.9 µM (inactive) | 10.8 µM (inactive) | 13.4 µM (inactive) | 3.54 µM (inactive) | 6.67 µM (inactive) | 6.27 µM (inactive) | 8.67 µM (inactive) | 1.27 µM (inactive) | 15.1 µM (inactive) | 3.3 µM (inactive) | 8.83 µM (inactive) | 2.65 µM (inactive) | 2.97 µM (inactive)
